# Reference: PubChem BioAssay AID463206 (Broad Institute, 2010)
# The source made the active and inactive calls.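 Rule for the calls: active = caspase luminescence falls with dose and the half-maximal concentration AC50 from the fitted curve is at or below a set limit; inconclusive = flat fit at 30 to 70% signal loss, or invalid fit; inactive = AC50 above the limit, or signal rises instead.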
# Test system: INS-1E cytokine-induced caspase-3/7, Caspase-Glo luminescence, 48 h
# Experiment: inhibitors of cytokine-induced caspase-3/7 activity, dose response, orthogonal assay for beta-cell apoptosis protection project, INS-1E rat cells, luminescence (AID 463206)
row,SMILES,AC50
1,O=C(C[C@@H]1C/C=C/CC[C@H](Cc2ccc(F)cc2)C(=O)OC[C@@H](Cc2ccccc2)NC1=O)N[C@H](CO)Cc1ccccc1,> 26 µM (inactive)
2,CCn1c(C)nc2cc(-c3nnc(-c4c(-c5ccccc5)noc4C)o3)ccc21,> 26 µM (inactive)
3,Cc1cc(C)c2c(C)[nH]nc2n1,> 26 µM (inactive)
4,CC(=O)Oc1c(Cl)cc(N(C(C)=O)S(=O)(=O)c2ccccc2)c2ccccc12,> 26 µM (inactive)
5,Cc1cc(C)c(S(=O)(=O)/N=C2\C=C(Nc3ccc(C(=O)O)cc3)C(=O)c3ccccc32)c(C)c1,> 26 µM (inactive)
6,CCCCOc1ncnc2c1[nH]c1ccc(F)cc12,> 26 µM (inactive)
7,CCOc1ccc(S(=O)(=O)N2CCCCC2)cc1NC(=O)CN1CCCC1c1cccs1 (centres undefined),> 26 µM (inactive)
8,Cc1cc(C2CCCCC2)n(O)c(=O)c1,> 26 µM (inactive)
9,CC(=O)Oc1c(I)cc(I)cc1C(=O)Nc1ccc(Cl)cc1,> 26 µM (inactive)
10,C(=C\c1nc(N2CCCCCC2)c2ccccc2n1)/c1ccccc1,> 26 µM (inactive)
11,CC(C)C[C@H]1CN=C(Nc2ccccc2)N1CCc1ccc(F)cc1,> 12 µM (inactive)
12,COc1cccc(/C=N/Nc2ncc(C(F)(F)F)cc2Cl)c1O,> 26 µM (inactive)
13,CCC1=NN(C(=O)c2cccc(Br)c2)C(O)(c2ccc(Br)cc2)C1 (centres undefined),> 26 µM (inactive)
14,O=C(N/N=C/c1cc([N+](=O)[O-])ccc1O)c1cccc2ccccc12,> 26 µM (inactive)
15,C=C(C(=O)c1ccccc1)C(C(=C)C(=O)c1ccccc1)c1ccc(OC)cc1,> 26 µM (inactive)
16,CC(C)CC(=O)NC(c1cccs1)c1ccc2cccnc2c1O (centres undefined),> 26 µM (inactive)
17,CCOC(=O)c1sc(SC)c2c1CCC/C2=N/OC,> 26 µM (inactive)
18,CCCC(=O)NC(c1ccccc1)c1ccc2cccnc2c1O (centres undefined),> 26 µM (inactive)
19,COc1ccccc1N1C(C)=CC(=C(C#N)c2nc3ccccc3s2)C=C1C,> 26 µM (inactive)
20,CNc1nc(N/N=C/c2cc3c(cc2[N+](=O)[O-])OCO3)nc(Nc2ccccc2)n1,> 26 µM (inactive)
21,CCOc1ccc(CN2CCN(Cc3c[nH]c4ccccc34)CC2)cc1,> 26 µM (inactive)
22,O=C(CCCCC(=O)Nc1ccc(F)cc1F)Nc1ccc(F)cc1F,> 26 µM (inactive)
23,O=C(NCc1cccnc1)c1cc(-c2ccco2)on1,> 26 µM (inactive)
24,COc1cc(C)c(C(=O)CC(=O)c2c(C)cc(OC)cc2C)c(C)c1,> 26 µM (inactive)

row,SMILES,AC50
1,Cc1ccc(NC(=O)Cn2c(=O)oc3cc(S(=O)(=O)N4CCC(C)CC4)ccc32)cc1C,> 26 µM (inactive)
2,Cc1c(N/N=C(\C#N)C(=O)c2ccc(Cl)cc2)c(=O)n(-c2ccccc2)n1C,> 26 µM (inactive)
3,C(C#CCCCCCCCCC[n+]1ccccc1)#CCCCCCCCCC[n+]1ccccc1,> 26 µM (inactive)
4,CC(C)(C)n1nnnc1C(c1ccc(F)cc1)N(Cc1ccc(F)cc1)Cc1ccco1 (centres undefined),> 26 µM (inactive)
5,Cc1ccc(C(=O)Nc2cccc3[nH]c(C(F)(F)F)nc23)cc1,> 26 µM (inactive)
6,COc1ccc(CNC[C@@H](CCCCN(C)Cc2ccc(OC)cc2)N2C[C@H](c3ccccc3)N(CCc3ccc(Cl)c(Cl)c3)C(=O)C2=O)cc1,> 26 µM (inactive)
7,Cc1ccc(OCc2cc(C(=O)N(C)Cc3cc(C4CC4)n[nH]3)no2)cc1C,> 26 µM (inactive)
8,COc1ccc(/C=C2\CN(Cc3ccccc3)C/C(=C\c3ccc(OC)c(O)c3)C2=O)cc1O,> 26 µM (inactive)
9,CCN1CCN(C2=C(NS(=O)(=O)c3ccccc3)C(=O)c3ccccc3C2=O)CC1,> 26 µM (inactive)
10,CC(C)Nc1ccc(Nc2ccnc3cc4ccccc4cc23)cc1,3.23 µM
11,COC(=O)c1cc(C)nc2c1C(=O)C(=O)C=C2N1CCOCC1,> 26 µM (inactive)
12,Cc1ccc(NC2=C(N3CCCCC3)C(=O)c3ccccc3C2=O)cc1,> 26 µM (inactive)
13,O=[N+]([O-])c1ccc(/C=N/n2c(CO)nc3ccccc32)s1,> 26 µM (inactive)
14,Cc1ccc(C)c(S(=O)(=O)Nc2cc(SCC(=O)O)c(O)c3ccccc23)c1,> 26 µM (inactive)
15,CCOC(=O)/C(=C\c1ccccc1)C(=O)c1cc(C(C)=O)c(Nc2ccccc2)s1,> 26 µM (inactive)
16,COc1cc2ccccc2cc1C(=O)Nc1sc2c(c1C(N)=O)CCN(C(C)C)C2,9.32 µM
17,CCCOc1nc2c(c(=O)n(C)c(=O)n2C)n1Cc1cccc2ccccc12,> 26 µM (inactive)
18,Cc1[nH]n(-c2ccccc2)c(=O)c1/C=N/NC(=O)c1cccc(F)c1,> 26 µM (inactive)
19,Oc1ccc(/C=N/Nc2ncc(Br)cn2)c(O)c1,> 26 µM (inactive)
20,Cc1ccc(-c2cn(-c3ccc(OC(F)F)cc3)c3[n+]2CCCCC3)cc1,> 26 µM (inactive)
21,COc1cccc(/C=N/NC(=O)c2[nH]nc3c2CCc2ccccc2-3)c1O,> 26 µM (inactive)
22,Cc1[nH]c(N=Nc2ccccc2)nc1N=Nc1ccccc1,> 26 µM (inactive)
23,O=C(NC1(Cc2ccccc2)CCN(CCCc2ccccc2)C1=O)c1ccccc1 (centres undefined),> 26 µM (inactive)
24,Cc1nn(C)c(C)c1CN(Cc1nc(CCC(C)C)no1)C(C)C,> 26 µM (inactive)

row,SMILES,AC50
1,C/C(=N\Nc1nc2ccccc2[nH]1)c1ccccn1,> 26 µM (inactive)
2,Cc1cc(C)cc(OCC(O)CN2CCC(CN3C(=O)c4cccc5cccc(c45)C3=O)CC2)c1 (centres undefined),> 26 µM (inactive)
3,COc1ccc(CN(C)C(=O)c2ccc(NS(=O)(=O)c3ccc(F)cc3)cc2)c(OC)c1OC,> 26 µM (inactive)
4,Fc1ccccc1N=C1NN=C(c2ccccc2)CS1,> 26 µM (inactive)
5,CCCCCc1cc(=O)oc2c(C(CCN3CCCC(C)C3)c3ccc(OC)cc3)c(OC)cc(OC)c12 (centres undefined),> 26 µM (inactive)
6,COc1cc2c(cc1OC)C(NC(=O)C(F)(F)F)CNC2=O (centres undefined),> 26 µM (inactive)
7,O=C(NCc1cccnc1)Nc1ccc([N+](=O)[O-])cc1,> 26 µM (inactive)
8,Cn1nc([N+](=O)[O-])nc1Sc1cccc2cccnc12,> 26 µM (inactive)
9,COc1ccc(-c2c[n+]3c(n2-c2ccc(C)cc2)CCCCC3)cc1,> 26 µM (inactive)
10,Cc1occc(=O)c1OC(=O)Nc1ccc(Cl)c(Cl)c1,> 26 µM (inactive)
11,O=C(NCc1cccnc1)/C(=C/c1ccc(-c2ccc(Cl)cc2)o1)S(=O)(=O)c1ccccc1,> 26 µM (inactive)
12,CC1=C(CO)C(=O)OC([C@@H](C)C2CC[C@H]3C4C[C@H]5O[C@]56[C@@H](O)C=CC(=O)[C@]6(C)C4CC[C@]23C)C1 (some centres undefined),> 26 µM (inactive)
13,CCc1ccc(S(=O)(=O)/N=C2\C=C(Nc3ccc(O)cc3)C(=O)c3ccccc32)cc1,> 26 µM (inactive)
14,O=S1(=O)C=C(Sc2nc3ccccc3s2)c2ccccc21,> 26 µM (inactive)
15,C=C1C(O)[C@@H]2O[C@]3(CC[C@H](/C=C/C(C)[C@@H]4CC(C)=CC5(O[C@H](C[C@@](C)(O)C(=O)O)CCC5O)O4)O3)CC[C@H]2O[C@@H]1C(O)CC(C)[C@H]1OC2(CCCCO2)CCC1C (some centres undefined),> 26 µM (inactive)
16,COc1cccc(Cn2c(NCc3ccco3)nc3c2c(=O)n(C)c(=O)n3C)c1,> 26 µM (inactive)
17,CC[C@@]1(O)C(=O)OCc2c1cc1n(c2=O)Cc2cc3c(N)cccc3nc2-1,0.36 µM
18,COc1ccc(-c2nn(-c3ccccc3)cc2C(=O)OCC(=O)c2ccc(C)c([N+](=O)[O-])c2)cc1,> 26 µM (inactive)
19,CCCc1sc(N/N=C/c2ccccn2)nc1-c1ccc(F)cc1,> 26 µM (inactive)
20,CCCCCCCC[n+]1cccc2c3ccccc3ccc21,> 26 µM (inactive)
21,CCC1CCCCN1C(=O)c1cc(COc2ccc3ncccc3c2)on1 (centres undefined),> 26 µM (inactive)
22,O=C(COC(=O)Cn1cnc2ccccc2c1=O)Nc1ccc2c(c1)OCO2,> 26 µM (inactive)
23,COc1ccc(CNCCC(c2ccccc2)c2ccc3c(c2)OCO3)cc1 (centres undefined),> 26 µM (inactive)
24,CC(C)COCc1ccc(O)c2ncccc12,> 26 µM (inactive)

row,SMILES,AC50
1,O=C(NCc1ccccc1)C1=C[C@@H](c2csc3ccccc23)C[C@@H](OCCCCO)O1,> 26 µM (inactive)
2,c1ccc(-c2nc(NCc3ccco3)c3ccccc3n2)nc1,> 26 µM (inactive)
3,Cc1cc(C)c2sc(NNC(=O)c3ccc(S(=O)(=O)N4CCc5ccccc5C4)cc3)nc2c1,> 26 µM (inactive)
4,CC(=O)NC(c1cccs1)c1cc(F)c2cccnc2c1O (centres undefined),> 26 µM (inactive)
5,COc1ccc(O)c(/C=N/NC(=O)c2cccc(N3CCCC3=O)c2)c1,> 26 µM (inactive)
6,Clc1ccc(OCCN2CCN(c3ncnc4sccc34)CC2)cc1,> 26 µM (inactive)
7,Cc1ccc(NC2=C/C(=N/S(=O)(=O)c3cccs3)c3ccccc3C2=O)cc1,> 26 µM (inactive)
8,CC[C@@H]1C/C=C\Cc2ccccc2[C@H](C(=O)C[C@@H](O)CC(C)=O)OC1=O,> 26 µM (inactive)
9,COc1cnc(-c2ccccn2)nc1N(C)C,> 26 µM (inactive)
10,O=C(c1ccc(F)c(S(=O)(=O)N2CCOCC2)c1)N1CCN(c2ccc(F)cc2)CC1,> 26 µM (inactive)
11,CC1=NNC(=O)/C1=C\c1cn(-c2ccccc2)nc1-c1ccccc1,> 26 µM (inactive)
12,O=C(NNc1ccnc2cc(Cl)ccc12)C1CCCCC1,> 26 µM (inactive)
13,COc1ccc(CCNc2c3ccccc3nc3ccccc23)cc1OC,4.3 µM
14,CCOC(=O)c1ccc(NC(=O)NCc2cccnc2)cc1,> 26 µM (inactive)
15,CN(C)c1ccc(/C=C/c2ccc3ccccc3n2)cc1,> 26 µM (inactive)
16,NS(=O)(=O)c1ccc(N/N=C2/CCCCC2C2CCCCC2)c([N+](=O)[O-])c1 (centres undefined),> 12 µM (inactive)
17,CC1=C(C#N)C(C(F)(F)F)(C(F)(F)F)N=C(c2ccco2)N1,> 26 µM (inactive)
18,Clc1ccccc1Nc1nnc(-c2ccncc2)s1,> 26 µM (inactive)
19,Cc1ncc(CO)c(/C=N/NC(=O)c2cc3c(s2)CCCC3)c1O,> 26 µM (inactive)
20,CCCC1CCC(c2ccc(C(=O)NN)cc2)CC1 (centres undefined),> 12 µM (inactive)
21,COc1ccc(-c2c([C@H]3[C@H]4C=CC[C@@H](C)[C@@H]4C(=O)N3Cc3ccccc3)ccc3ccccc23)cc1,> 26 µM (inactive)
22,Cc1cc(C)c2nc(NNC(=O)c3ccc(S(=O)(=O)N4CCCC(C)C4)cc3)sc2c1 (centres undefined),> 26 µM (inactive)
